Source: patent US20070274947A1, “Antisense Oligonucleotides Directed to Ribonucleotide Reductase R1 and Uses Thereof in the Treatment of Cancer” (priority 2003, published 2007)
Entries after “also recorded” stand apart in the source; their conditions may differ.

Legend:
[1] = test system: 28S rRNA, 18S rRNA, thioredoxin mRNA, β-actin mRNA, GAPDH mRNA, thioredoxin reductase mRNA, ribosomal protein S9 mRNA, RNase MRP RNA, RNase P RNA and R2 mRNA; test: Northern blot of other cellular RNAs in A2058 human melanoma cells (specificity); assay type: cell-based; conditions: 0.2 μM, 4 hr with Lipofectin
Description: A2058 human melanoma cells, grown to subconfluency (70-80%), were treated with 0.2 μM of phosphorothioate antisense ODNs for 4 hr in the presence of cationic lipid (Lipofectin reagent, final concentration, 5 μg/ml, GIBCO BRL) and Opti-MEM (GIBCO BRL). Cells were washed once with PBS and incubated for 16 hr in α-MEM medium (GIBCO BRL) containing 10% FBS. Total RNA was prepared in TRIzol reagent (GIBCO BRL) and northern blot analysis was performed as previously described (Hurta and Wright, J. Cell. Biochem. 57: 543-56, 1995) with some modifications. RNA prepared from cells treated with lipofectin alone (Control), SEQ ID NO:1 and scrambled control analogue (SEQ ID NO:1 Scr) were subjected to electrophoresis through 1% formaldehyde agarose gels followed by transfer to nylon membrane. The blots were hybridized with ^32P-labeled probes that detect R1 mRNA, 28S rRNA, 18S rRNA, thioredoxin mRNA, […], GAPDH mRNA, thioredoxin reductase mRNA, ribosomal protein S9 mRNA, RNase MRP RNA, RNase P RNA and R2 mRNA.

[2] = test system: R1 protein; test: Immunoprecipitation of newly synthesized R1 protein in AsPC-1 cells; assay type: cell-based, human; conditions: 0.2 μM, 4 hours
Description: Immunoprecipitation was performed using a saturating amount of AD203 anti-R1 monoclonal antibody as previously described (Choy et al., 1988). Human tumor cells, AsPC-1 (pancreatic adenocarcinoma), were exposed for 4 hours to SEQ ID NO:1, SEQ ID NO:1 M is (a SEQ ID NO:1 sequence containing four base mismatch) or SEQ ID NO:1 Scr (a sequence with the same ratio of ACTG as the SEQ ID NO:1 sequence but scrambled). Cells were then washed and labeled with ^35S-methionine for 4-7 hours. R1 protein was specifically immunoprecipitated with R1 antibody from cell lysate, resolved on sodium dodecyl sulfate-polyacrylamide gels and analyzed by autoradiography.

[3] = Acute intravenous toxicity study in the monkey (24-hour infusion, escalating doses); assay type: in vivo, Cynomolgus monkeys
Description: The objective of this single, dose escalating study was to establish a maximum tolerated dose (MTD) for SEQ ID NO:1 and to assess the effect of administered SEQ ID NO:1 on the cardiac function of conscious Cynomolgus monkeys. […] There was a 3-day washout between doses. One female animal, administered vehicle only (PBS) in the same manner, was used as a control. Electrocardiogram (ECG) measurements were conducted on each animal (including control) prior to, during and after the end of each infusion interval. Clinical signs, mortality, body weight and food consumption measurements, hematology, coagulation and clinical chemistry parameter evaluations, were recorded and evaluated. In addition, blood samples were removed prior to and at the end of each infusion interval to measure complement (CH50 and Bb). Blood samples were also drawn at the end of each infusion for analysis of parent, SEQ ID NO:1.

[4] = test system: R1 mRNA; test: R1 mRNA levels in HT-29 colon tumors in nude mice (Northern blot); assay type: in vivo, human; conditions: day 16, 10 mg/kg every other day, two independent HT-29 tumors
Description: Effects of SEQ ID NO:1 administration on R1 mRNA levels in HT-29 colon tumors in nude mice were investigated.
For determination of mRNA levels in tumors by Northern Blot, total RNA was prepared from excised tumors using TRIzol reagent (GIBCO BRL). Northern blot analysis was performed as previously described (Hurta and Wright, 1995). RNA was subjected to electrophoresis through 1% formaldehyde agarose gels followed by transfer to nylon membranes. Blots were hybridized in the presence of a R1 fragment (McClarty et al, 1987). Glyceraldehyde-3-phosphate dehydrogenase (GAPDH) mRNA levels were simultaneously probed for RNA loading controls.
The results provide strong evidence that SEQ ID NO:1 is reaching the tumor site in vivo and is acting by an antisense mechanism of action.

[5] = monkey, in vivo
[6] = Toxicokinetics in repeat dose (14-day and 21-day) continuous infusion studies in monkeys; conditions: monkey
[7] = rat
Description: Ten rats/sex/group were administered SEQ ID NO:1 at doses of 0 (control), 2, 10, or 50 mg/kg/day. Animals in the control group received the vehicle article, PBS. […] An additional 5 rats/group were included in the control and high dose group as recovery animals, and were allowed a 14-day observation period following the treatment period. Parameters assessed during the study include mortality, clinical signs, body weights, food consumption, opthalmoscopic examination, clinical pathology assessment (hematology, coagulation, clinical chemistry, and urinalysis). Terminal procedures included a complete necropsy of each animal, and histopathologic evaluation of selected tissues for animals in the control and high dose groups. For toxicokinetic evaluations, an additional 8 rats/sex were included in the high dose groups. Serial and terminal blood samples were withdrawn from satellite animals at selected time points during infusion and after the end of infusion.

[8] = test system: LS513 cells; test: LS513 multi-drug resistant colon adenocarcinoma growth in SCID mice; assay type: in vivo, human
Description: LS513 cells (1×10^7 cells in 100 μl of PBS) were subcutaneously injected into the right flank of 6-7 weeks old female SCID mice. After the size of tumor reached an approximate volume of 100 mm^3, 8 days post tumor cell injection, SEQ ID NO:1 was administered by bolus infusion into the tail vein every other day at 10 mg/kg. Control animals received saline alone for the same period. Antitumor effect of SEQ ID NO:1 was further compared to that of CPT-11. CPT-11 was administered i.p. for 5 days at a dose of 20 mg/kg/day. Antitumor activities were estimated by the inhibition of tumor volume, which was measured with calipers. Each point represents mean tumor volume calculated from 10 animals per experimental group (FIG. 16A). Tumor weights were measured after animals were sacrificed at the end of the treatment (FIGS. 16B and 16C). These cells are not resistant to CPT-11, which was used as a positive control.

## 5′-CTCTAGCGTCTTAAAGCCGA-3′ (CTCTAGCGTCTTAAAGCCGA; chemistry not given here) [SEQ ID NO:1]
[1]
  expression of other cellular RNAs: significant decrease in R1 mRNA but not other RNAs; also recorded: No effects were observed
[2]
  R1 protein expression (synthesis): specifically decreases R1 protein expression; also recorded: dramatically decreased; also recorded: specifically inhibit the expression of R1 protein
[3]; 80 mg/kg, one animal (female)
  complement values: outside the normal range (higher Bb and lower CH50)
[3]; 10-80 mg/kg
  ECG recordings and blood pressure: no treatment-related effects
[3]; 24-hour infusions of 10, 20, 40 and 80 mg/kg
  deaths, clinical signs, body weight, food consumption: no deaths, clinical signs, body weight changes, or effects on food consumption
[3]; escalating doses 10-80 mg/kg
  plasma concentrations at the end of infusion: increased with escalating dose levels
[3]; following the last dose (Day 14), all values within normal ranges
  activated partial thromboplastin times: apparent increasing trend
[3]; up to 40 mg/kg
  complement Bb and CH50 values: within the reference range
[4]
  R1 mRNA levels in tumors: marked reduction; also recorded: decreased R1 mRNA levels
[5]
  levels in the brain: very low or below the limits of detection
  tissue concentrations, rank order: kidney>liver>spleen>lymph node (monkey)>lung (monkey)>heart
  tissue levels upon discontinuation of treatment: decreased over time
[6]; Part 1 and Part 2 Recovery animals
  AUC estimates versus duration and dose: proportional with the duration of infusion and the administered dose level
[6]; Parts 1 and 2
  sex differences in toxicokinetic profile: no apparent sex-differences
[7]
  sex difference in plasma concentrations during infusion: no apparent differences in the levels between males and females
[7]; in vivo
  mean Cmax: 40.4 µg/mL
  median time at which Cmax occurred: 96 h
[7]; 50 (40) mg/kg/day continuous infusion
  time to steady state of continuous infusion: approximately 24 h
[7]; after 14-day continuous infusion, high dose
  elimination t1/2: 8.6 h
[7]; continuous i.v. infusion 50 mg/kg/day (reduced to 40 mg/kg/day), 14 days
  steady state level (Css) in plasma: 34.8 µg/mL
[8]; CPT-11 20 mg/kg/day i.p. for 5 days
  efficacy compared with CPT-11: more effective than CPT-11
[8]; SCID mice, 10 mg/kg i.v. every other day, vs saline
  tumor growth (volume, weight): significant delay of tumor growth
